According to US20250296928A1, “A SYNTHESIS SCHEME AND PROCEDURES FOR PREPARING A SIK3 INHIBITOR AND INTERMEDIATES THEREOF” (iOmx Therapeutics AG, priority 2021, published 2025):

Columns and labels:
SIK3 = target: T1, SIK3 (Homo sapiens, UniProt Q9Y2K2); test: Radiometric protein kinase assay (33PanQinase Activity Assay), SIK3; assay type: biochemical
T1 construct: purchased ProQuinase, Freiburg, Germany
Protocol: (§1) Incorporation of 33Pi was determined with a microplate scintillation counter (Microbeta, Wallac).

NFKB activity (PANC-1) = test: TNF-induced NFKB activity in PANC-1 cells; assay type: cell-based
HDAC4 phosphorylation = test: TNF-induced phosphorylation of HDAC4; assay type: cell-based; settings: for Inhibition of HDAC4 phosphorylation: TNF-induced; for Inhibition of HDAC phosphorylation: summary Table 4.3
[1] = Screening PK in mice, 30 mg/kg po; assay type: in vivo
SIK2 = target: T2, SIK2 (Homo sapiens, UniProt Q9H0K1); test: Radiometric protein kinase assay (33PanQinase Activity Assay), SIK2; assay type: biochemical; settings: ATP 1.0 μM
T2 construct: purchased ProQuinase, Freiburg, Germany
T2 sequence (Q9H0K1 whole entry): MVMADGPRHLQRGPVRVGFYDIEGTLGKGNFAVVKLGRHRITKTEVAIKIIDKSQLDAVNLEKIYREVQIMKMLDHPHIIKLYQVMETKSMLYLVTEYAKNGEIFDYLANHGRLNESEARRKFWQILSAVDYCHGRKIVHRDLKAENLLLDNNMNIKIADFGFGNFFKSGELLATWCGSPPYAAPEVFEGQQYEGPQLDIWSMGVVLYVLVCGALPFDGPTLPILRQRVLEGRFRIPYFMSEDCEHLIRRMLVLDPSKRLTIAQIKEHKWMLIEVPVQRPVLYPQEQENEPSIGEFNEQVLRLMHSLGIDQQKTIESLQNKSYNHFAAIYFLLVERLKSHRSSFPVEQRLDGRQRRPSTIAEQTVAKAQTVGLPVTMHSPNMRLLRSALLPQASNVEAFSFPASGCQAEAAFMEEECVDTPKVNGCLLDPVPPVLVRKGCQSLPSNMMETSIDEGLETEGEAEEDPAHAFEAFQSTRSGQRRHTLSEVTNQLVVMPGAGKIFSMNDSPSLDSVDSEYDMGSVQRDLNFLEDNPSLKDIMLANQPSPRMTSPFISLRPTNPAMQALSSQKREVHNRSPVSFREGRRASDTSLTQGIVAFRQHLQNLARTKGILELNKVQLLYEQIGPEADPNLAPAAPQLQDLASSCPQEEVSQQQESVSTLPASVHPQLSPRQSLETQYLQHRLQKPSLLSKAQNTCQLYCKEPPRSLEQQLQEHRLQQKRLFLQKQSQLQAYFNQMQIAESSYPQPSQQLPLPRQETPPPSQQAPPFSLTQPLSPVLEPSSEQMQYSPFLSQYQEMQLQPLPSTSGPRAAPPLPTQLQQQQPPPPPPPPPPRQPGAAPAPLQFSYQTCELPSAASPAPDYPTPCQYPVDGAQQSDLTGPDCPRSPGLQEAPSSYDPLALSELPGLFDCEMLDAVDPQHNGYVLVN
Protocol: as §1

NFKB activity (MC38) = test: TNF-induced NFKB activity in MC38 cells; assay type: cell-based, mouse; settings: for Inhibition of NFKB activity: summary Table 4.3, cell line not stated; for Inhibition of NFKB activity (MC38): TNF-induced, 10 ng/ml rMuTNF
Protocol: TNF-induced NFKB activity in MC38 cells was measured analogously to the assay in PANC-1 cells described in connection with Example 9.2 (Table 9C) of WO2020/083926), except that 10 ng/ml rMuTNF was used.

[2] = Human liver microsomal stability; assay type: in vitro ADME
[3] = Mouse liver microsomal stability; assay type: in vitro ADME
[4] = Human hepatocyte stability; assay type: in vitro ADME; settings: for clearance classification: from human hepatocyte stability
[5] = Mouse hepatocyte stability; assay type: in vitro ADME
[6] = Human plasma-protein binding; assay type: in vitro ADME; settings: for fraction unbound: human, plasma
[7] = Murine plasma protein binding; assay type: in vitro ADME, mouse
P-gp (MDR1) = test: Permeability and efflux in MDCK-MDR1 cells; assay type: in vitro ADME; settings: dog
[8] = Full pharmacokinetic study with oral administration in mice; assay type: in vivo
[9] = tested on: MC38 syngeneic tumour model; test: MC38 syngeneic tumour model, comparative study E9 versus dasatinib (FIG. 5); assay type: in vivo, mice; settings: 25 mg/kg BID
Text: Left hand column=compound treatment group; and right hand column=vehicle treatment group. Y axes=Tumour volume (mm3); X axes=Days after inoculation.

in vitro = settings: dog, MDCK
MC38 cells = test: MC38 syngeneic tumour model, in-vivo anti-cancer efficacy
Protocol: Y-axis=Mean tumour volume (mm3). Error bars SEM Statistical significance was calculated with one-way ANOVA analysis including Tukey's multiple comparison analysis. X-axis=Days. (B) Probability of tumour volume <1000 mm3 of the mice in (A). Y-axis: Probability of occurrence of tumour volumes <=1000 mm3 upon treatment. X-axis: Days. […] (C) to (H) Tumour growth curves of individual mice; Y-axis: Tumour volume (mm3), X-axis: Days.

MDCK-MDR1 cells (P-gp) = test: Permeability and efflux in MDCK-MDR1 cells; assay type: in vitro ADME
MDCK-wild type cells = test: Permeability and efflux in MDCK-wild type cells
[10] = Total plasma concentration at 30 mg/kg p.o dose, C7 = 1x
[11] = mouse, plasma, mice, 30 mg/kg po, Free
[12] = mice, 30 mg/kg po, Free plasma concentration
[13] = mice, 30 mg/kg po, Total plasma concentration

T1 sequence (Q9Y2K2 whole entry): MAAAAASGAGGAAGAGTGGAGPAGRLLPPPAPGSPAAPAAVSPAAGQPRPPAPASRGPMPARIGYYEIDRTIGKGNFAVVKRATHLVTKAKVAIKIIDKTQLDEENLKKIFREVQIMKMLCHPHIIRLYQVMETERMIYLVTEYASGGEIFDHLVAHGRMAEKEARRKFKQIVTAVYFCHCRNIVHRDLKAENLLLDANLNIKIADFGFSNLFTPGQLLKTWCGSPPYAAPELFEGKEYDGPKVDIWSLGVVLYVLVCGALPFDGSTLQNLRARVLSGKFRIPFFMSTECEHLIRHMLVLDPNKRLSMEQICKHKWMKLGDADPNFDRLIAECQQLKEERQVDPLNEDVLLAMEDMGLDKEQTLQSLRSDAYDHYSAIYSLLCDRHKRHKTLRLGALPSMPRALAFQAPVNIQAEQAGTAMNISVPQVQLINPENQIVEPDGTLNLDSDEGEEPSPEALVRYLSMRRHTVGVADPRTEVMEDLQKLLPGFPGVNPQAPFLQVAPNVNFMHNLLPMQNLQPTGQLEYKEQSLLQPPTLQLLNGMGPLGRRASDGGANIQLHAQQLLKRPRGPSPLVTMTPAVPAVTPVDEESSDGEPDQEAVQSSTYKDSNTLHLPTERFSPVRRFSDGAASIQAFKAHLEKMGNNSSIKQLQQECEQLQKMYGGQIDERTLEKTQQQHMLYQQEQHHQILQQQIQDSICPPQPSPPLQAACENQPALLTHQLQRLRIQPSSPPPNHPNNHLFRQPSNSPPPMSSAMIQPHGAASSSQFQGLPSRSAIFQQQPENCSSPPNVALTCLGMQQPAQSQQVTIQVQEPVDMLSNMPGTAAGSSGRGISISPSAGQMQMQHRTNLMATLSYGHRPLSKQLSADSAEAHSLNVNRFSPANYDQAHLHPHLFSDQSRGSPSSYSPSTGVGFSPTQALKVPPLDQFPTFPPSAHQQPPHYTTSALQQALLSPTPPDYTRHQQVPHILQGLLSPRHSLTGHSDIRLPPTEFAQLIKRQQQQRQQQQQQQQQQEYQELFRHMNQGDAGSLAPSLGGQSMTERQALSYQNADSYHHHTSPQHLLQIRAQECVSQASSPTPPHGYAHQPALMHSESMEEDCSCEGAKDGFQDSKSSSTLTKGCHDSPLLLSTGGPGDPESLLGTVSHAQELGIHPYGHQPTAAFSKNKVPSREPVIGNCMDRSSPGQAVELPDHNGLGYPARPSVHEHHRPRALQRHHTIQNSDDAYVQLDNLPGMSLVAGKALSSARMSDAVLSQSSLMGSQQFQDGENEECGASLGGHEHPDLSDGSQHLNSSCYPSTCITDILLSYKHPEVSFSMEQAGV

SMILES: Cc1nc(Nc2ncc(C(=O)Nc3c(C)csc3Cl)s2)cc(N2CCN(C)CC2)n1 [Compound D9]
- IC50 (SIK3; ATP 1.0 μM): ~60 nM
- Inhibition of NFKB activity (PANC-1) (NFKB activity (PANC-1)): +
- Inhibition of HDAC4 phosphorylation (HDAC4 phosphorylation): +
- Free plasma concentration after 6 h ([1]; 30 mg/kg po, 6 h, free): 8 nM

SMILES: Cc1nc(Nc2ncc(C(=O)Nc3c(CF)csc3Cl)s2)cc(N2CCN(C)CC2)n1 [Compound E9, N-(2-chloro-4-(fluoromethyl)thiophen-3-yl)-2-((2-methyl-6-(4-methylpiperazin-1-yl)pyrimidin-4-yl)amino)thiazole-5-carboxamide]
- IC50 (SIK2): < 10 nM
- SIK3 IC50 (nM), relative to C7 (SIK3; relative to C7 = 1x): 0.3x
- potency against SIK3 improved over C7 and D9 (SIK3; relative to C7 and D9): 2-3 times
- Inhibition of NFKB activity (NFKB activity (MC38)): ++
- Inhibition of HDAC4 phosphorylation (HDAC4 phosphorylation): ++
- Inhibition of HDAC phosphorylation (HDAC4 phosphorylation): ++
- clearance classification ([2]; from human liver microsomal stability): high clearance drugs
- half-life ([2]; human liver microsomes): ~10 min
- microsomal CLint ([2]; human liver microsomes, read-out: Human liver microsomal stability: Intrinsic clearance): 130 to 150 µL/min/mg
- clearance classification ([3]; from mouse liver microsomal stability): high clearance drugs
- half-life ([3]; mouse liver microsomes): ~10 min
- microsomal CLint ([3]; mouse liver microsomes, read-out: Mouse liver microsomal stability: Intrinsic clearance): 130 to 150 µL/min/mg
- clearance classification [4]: high clearance drugs
- half-life ([4]; human hepatocytes): ~25 min
- clearance classification ([5]; from mouse hepatocyte stability): medium clearance drug
- half-life ([5]; mouse hepatocytes): ~65 min
- fraction unbound ([6]; read-out: Human plasma-protein binding: Percentage unbound): 0.01
- fraction unbound ([6]; read-out: human plasma protein binding): < 0.05
- fraction unbound ([7]; mouse plasma): < 0.05
- fraction unbound at 4 h ([7]; mouse, murine plasma, read-out: Murine plasma protein binding: Percentage unbound): 0.01
- Papp A→B (P-gp (MDR1)): 5 ×10⁻⁶ cm/s
- improvement for free serum concentration over C7 ([1]; 30 mg/Kg po, free): 2 fold
- improvement for total serum concentration over C7 ([1]; 30 mg/Kg po, total): 4.5 fold
- AUC0-last (nM*h), relative to C7 [8, 10]: 8.2x
- C max (ng/ml), relative to C7 [8, 10]: 5.6x
- MRT0-last (h), relative to C7 [8, 10]: 1.2x
- t1/2 (h), relative to C7 [8, 10]: 2x
- % AUCextrap ([8]; mice, 30 mg/kg po, Free): 0.49%
- MRTlast ([8]; mice, 30 mg/kg po, Free): 203 min
- Rsq ([8]; mice, 30 mg/kg po, Free): 0.84
- Tmax ([8]; mice, 30 mg/kg po, Free): 15 min
- t1/2 ([8]; mice, 30 mg/kg po, Free): 166 min
- % AUCextrap ([8]; mice, 30 mg/kg po, Total): 0.49%
- Rsq ([8]; mice, 30 mg/kg po, Total): 0.84
- AUC(0-inf) [8, 11]: 0.24 µM·h
- AUC(0-t) [8, 11]: 0.239 µM·h
- Cmax ([8]; mouse, mice, 30 mg/kg po, Free plasma concentration, read-out: Cmax): 66.9 ng/mL
- average TGI [9]: 72%
- Papp A→B (in vitro): 10 ×10⁻⁶ cm/s
- efflux ratio (in vitro): 20 to 30
- Body weight increase (MC38 cells; 25 mg/Kg, BID, po): 16.8%
- Tumour growth inhibition (MC38 cells; 25 mg/Kg, BID, po): 74%
- Body weight increase (MC38 cells; 50 mg/Kg, BID, po): 18.7%
- Tumour growth inhibition (MC38 cells; 50 mg/Kg, BID, po): 69%
- treatment related side effects and clinical signs (MC38 cells; administered orally): no direct treatment related side effects and clinical signs

SMILES: Cc1nc(Nc2ncc(C(=O)Nc3c(Cl)ccnc3C)s2)cc(N2CCN(CCO)CC2)n1 [Compound B3]
- Human liver microsomal stability: Half-life ([2]; human liver microsomes): 58 min
- Human liver microsomal stability: Intrinsic clearance ([2]; human liver microsomes): 24 µL/min/mg
- Mouse liver microsomal stability: Half-life ([3]; mouse liver microsomes): 62 min
- Mouse liver microsomal stability: Intrinsic clearance ([3]; mouse liver microsomes): 22 µL/min/mg
- Human plasma-protein binding: Percentage unbound [6]: 7%
- Murine plasma protein binding: Percentage unbound ([7]; murine plasma): 11%
- Cmax after 2 h ([1]; 30 mg/kg po, 2 h): 56 ng/mL
- Free plasma concentration after 6 h ([1]; 30 mg/kg po, 6 h, free): 3 nM
- Plasma concentration after 6 h ([1]; 30 mg/kg po, 6 h, total): 29 nM
- Tmax ([8]; mice, 30 mg/kg po, Free): 30 min
- t1/2 ([8]; mice, 30 mg/kg po, Free): 144 min
- Cmax [8, 12]: 10.7 ng/mL
- % AUCextrap ([8]; mice, 30 mg/kg po, Total): 14%
- AUCinf ([8]; mice, 30 mg/kg po, Total): 697 nM·h
- AUClast ([8]; mice, 30 mg/kg po, Total): 589 nM·h
- Tmax ([8]; mice, 30 mg/kg po, Total): 30 min
- t1/2 ([8]; mice, 30 mg/kg po, Total): 144 min
- Cmax [8, 13]: 99 ng/mL

SMILES: Cc1nc(Nc2ncc(C(=O)Nc3c(C)csc3Cl)s2)cc(N2CCN(CCO)CC2)n1 [Compound C7]
- Inhibition of NFKB activity (MC38) (NFKB activity (MC38)): +
- Inhibition of NFKB activity (NFKB activity (MC38)): +
- Inhibition of NFKB activity (PANC-1) (NFKB activity (PANC-1)): +
- Inhibition of HDAC4 phosphorylation (HDAC4 phosphorylation): +
- Inhibition of HDAC phosphorylation (HDAC4 phosphorylation): +
- Human liver microsomal stability: Half-life ([2]; human liver microsomes): 10 min
- Human liver microsomal stability: Intrinsic clearance ([2]; human liver microsomes): 142 µL/min/mg
- Mouse liver microsomal stability: Half-life ([3]; mouse liver microsomes): 13 min
- Mouse liver microsomal stability: Intrinsic clearance ([3]; mouse liver microsomes): 110 µL/min/mg
- clearance classification [4]: medium-to-high clearance drugs
- Human hepatocyte stability: Half-life ([4]; human hepatocytes): 54 min
- Human hepatocyte stability: Intrinsic clearance ([4]; human hepatocytes): 26 µL/min/mg
- half-life in the presence of human hepatocytes ([4]; human hepatocytes): approx. 1 h
- Mouse hepatocyte stability: Half-life ([5]; mouse hepatocytes): 50 min
- Mouse hepatocyte stability: Intrinsic clearance ([5]; mouse hepatocytes): 28 µL/min/mg
- Human plasma-protein binding: Percentage unbound [6]: 2%
- Human plasma-protein binding: Recovery at 4 h ([6]; 4 h): 75%
- Murine plasma protein binding: Percentage unbound ([7]; murine plasma): 3%
- Murine plasma protein binding: Recovery at 4 h ([7]; murine plasma, 4 h): 87%
- Mean Papp A > B (MDCK-MDR1 cells (P-gp)): 2 10^−6 cm/s
- % AUCextrap ([8]; mice, 30 mg/kg po, Free): 11.24%
- AUCinf ([8]; mice, 30 mg/kg po, Free): 58.79 nM·h
- AUClast ([8]; mice, 30 mg/kg po, Free): 52.07 nM·h
- MRTlast ([8]; mice, 30 mg/kg po, Free): 165 min
- Rsq ([8]; mice, 30 mg/kg po, Free): 0.99
- Tmax ([8]; mice, 30 mg/kg po, Free): 120 min
- t1/2 ([8]; mice, 30 mg/kg po, Free): 85.2 min
- Cmax [8, 12]: 21.34 ng/mL
- % AUCextrap ([8]; mice, 30 mg/kg po, Total): 11.24%
- AUCinf ([8]; mice, 30 mg/kg po, Total): 1,306.48 nM*h
- AUClast ([8]; mice, 30 mg/kg po, Total): 1,157.10 nM*h
- MRTlast ([8]; mice, 30 mg/kg po, Total): 165 min
- Rsq ([8]; mice, 30 mg/kg po, Total): 0.99
- Tmax ([8]; mice, 30 mg/kg po, Total): 120 min
- t1/2 ([8]; mice, 30 mg/kg po, Total): 85.2 min
- Cmax [8, 13]: 474.16 ng/mL
- Mean Papp A > B (MDCK-wild type cells): 9 10^−6 cm/s
- Body weight increase (MC38 cells; 100 mg/Kg, BID, po): 1.0%
- Non-treatment related death (MC38 cells; 100 mg/Kg, BID, po): 3/16
- Tumour growth inhibition (MC38 cells; 100 mg/Kg, BID, po): 78%

SMILES: Cc1nc(Nc2ncc(C(=O)Nc3c(C)cccc3Cl)s2)cc(N2CCN(CCO)CC2)n1 [Compound A8, N-(2-chloro-6-methylphenyl)-2-[[6-[4-(2-hydroxyethyl)-1-piperazinyl]-2-methyl-4-pyrimidinyl]amino]-5-thiazolecarboxamide]
- Inhibition of NFKB activity (MC38) (NFKB activity (MC38)): +
- Inhibition of NFKB activity (PANC-1) (NFKB activity (PANC-1)): +
- Inhibition of HDAC4 phosphorylation (HDAC4 phosphorylation): ++
- Cmax ([1]; mouse, plasma, 30 mg/kg po, 2 h): 550 ng/mL
